The values that follow are results of earlier work, collected in paper PMC10925453, “Selective Bias Virtual Screening for Discovery of Promising Antimalarial Candidates targeting Plasmodium N-Myristoyltransferase” (Research Square, 2024).

Each structure is given as a SMILES string.

In data set [1] the test system is Plasmodium NMT. Further details: method as in earlier work. Particulars: ligand of the PDB structure, activity against Plasmodium NMT; ref PDB.
Data set [2] concerns human isoform 1. The following applies: no reference given.

Regarding `Cc1nn(C)c(C)c1Cc1nnc(-c2sc3ccccc3c2OC2CCNCC2)o1` [2YNE, 2-(3-piperidin-4-yloxy-1-benzothiophen-2-yl)-5-[(1,3,5-trimethylpyrazol-4-yl)methyl]-1,3,4-oxadiazole], in data set [1], the Ki is 2.7 nM. For the same compound, in data set [2], the IC50 was 60 ± 3 nM.

In the case of `Cc1nn(C)c(C)c1NS(=O)(=O)c1c(Cl)cc(-c2ccnc(N3CCNCC3)c2)cc1Cl` [2YND], in data set [1], the Ki is 32 nM.

Usually Ki stands for the equilibrium dissociation constant of an inhibitor or competing ligand from its target. One may read the IC50 as the midpoint of a concentration-inhibition curve.
